Test results taken from patent publication US9464055B2, “Quinoline derivatives useful as CB-1 inverse agonists” (JANSSEN PHARMACEUTICA NV, priority 2014, dated 2016).

What was measured:
[1] = Chronic DIO mouse: plasma and brain concentrations; format: in vivo; conditions: for Brain concentration (Std Dev): DIO mice, second study
Procedure: Male 14-20-week old diet-induced obese mice were ordered from Taconic. Mice were started on a 60% fat diet (D12492, Research Diets, New Brunswick, N.J.) at 6 weeks of age. Mice were single-housed.
(§1) Test compounds were formulated in 10% PEG400 and 10% solutol. Test compounds were administered by oral gavage (5 ml kg^−1).
The test compound was formulated in 10% PEG400 and 10% solutol. DIO mice received vehicle, test compound (@1, 3 and 10 mg/kg) daily for 26 days. At the end of the experiment, the mice were euthanized and blood and tissues were collected.
Compound #44 was tested according to the procedure as described above, with results as listed in Table BIO-4A through Table BIO4-G, below.
In a second study, Compound #44 was tested according to the procedure as described above, with results as listed in Tables BIO-5A through 5G, below.

[2] = target: hCB1-CHO-K1 membranes (Homo sapiens, UniProt P21554); assay: CB-1 membrane binding assay ([3H] CP 55,940 displacement)
hCB1-CHO-K1 membranes, sequence (P21554 whole entry): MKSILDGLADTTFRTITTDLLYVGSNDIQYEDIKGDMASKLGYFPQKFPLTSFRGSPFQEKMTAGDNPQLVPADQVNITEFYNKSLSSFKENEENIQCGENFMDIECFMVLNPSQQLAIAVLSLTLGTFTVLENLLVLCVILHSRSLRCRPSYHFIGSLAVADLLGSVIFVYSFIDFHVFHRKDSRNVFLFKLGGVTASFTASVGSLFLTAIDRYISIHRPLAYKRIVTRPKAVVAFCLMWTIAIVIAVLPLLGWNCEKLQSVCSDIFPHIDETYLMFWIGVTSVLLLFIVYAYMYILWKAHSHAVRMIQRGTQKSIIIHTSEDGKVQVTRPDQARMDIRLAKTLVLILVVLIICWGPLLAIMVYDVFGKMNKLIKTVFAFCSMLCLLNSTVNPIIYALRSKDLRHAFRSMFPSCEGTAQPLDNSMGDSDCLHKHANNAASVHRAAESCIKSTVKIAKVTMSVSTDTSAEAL
Procedure: Into Greiner V bottom polypropylene plates, hCB1-CHO-K1 membranes (2 μg/well final concentration) in assay buffer (50 mM Tris-HCl pH 7.4, 5 mM MgCl2 and 0.5 mg/ml (0.05%) Ultra fatty acid free BSA) were dispensed. Membranes were purchased from Perkin Elmer. Test compounds were then added to each well and then [^3H] CP 55, 940 (0.4 nM final well concentration) in assay buffer (50 mM Tris-HCl pH 7.4, 5 mM MgCl2 and 0.5 mg/ml (0.05%) Ultra fatty acid free BSA) was added. Samples were mixed and incubated for 90 min at 30° C. in the Greiner V Bottom Polypropylene plate. After incubation, assay reagents were transferred to a blocked 384 well polypropylene filter plates. The binding reaction was stopped by filtration and washed seven times with ice cold rinse buffer. Filter plates were then dried overnight at room temperature. The next day, plate bottoms were sealed with plate tape and 15 μl MicroScint 20 was added to each well. Plates were incubated for 2 h and radioactivity was measured by Topcount.
Total Binding levels were achieved by combining membrane, DMSO, and [^3H]
Non-Specific Binding (NSB) levels were achieved by combining membrane, 10 μM final concentration WIN-55,212 (also known as (R)-(+)-[2,3-Dihydro-5-methyl-3[(4-morpholinyl)methyl]pyrrolo[1,2,3-de]-1,4-benzoxazinyl]-(1-naphthalenyl)methanone mesylate, Tocris Biosciences Cat#1038), and [^3H]
Non-specific binding (NSB=10 μM WIN-55,212+Membrane+[^3H] CP-55,940) was used as the negative control, while the Total Binding (TB=DMSO+Membrane+[^3H] CP-55,940) was used as the positive control.
IC50 data was calculated using raw CPM values. Curves were fitted individually from singlet 11 point dosing curves+1% DMSO Control. IC50 values were fit appropriately and calculated using the following equation:
Vmin, CPM at maximum inhibition; Vo, CPM at zero inhibition; IC50, inhibitor concentration at 50% inhibition; h, Hill coefficient.

[3] = system: Male SD rats; assay: Open field locomotor activity in rats (CNS activity), stereotypic counts; format: in vivo, rat; conditions: 4 hour monitoring, vehicle 3022
Description: (§2) Male Sprague Dawley rats were ordered from Charles River (225-250 gm upon arrival). They were fed standard chow diet (Purina 5001) and housed 2 per cage. Male C57bl/6j mice were ordered from Charles River at 22-25 g and housed 3 per cage. They were fed standard chow (Purina 5001). All animals were housed in a temperature-controlled room with 12-hour light/dark cycle. Animals were given food and water ad libitum, except as noted.
as §1
Male SD rats were weighed and transferred to the Activity Chambers with access to water. After a 2-hr acclimation period, the rats were dosed with vehicle or test compound (@3 and 10 mg/kg). The Activity Chamber monitoring software program was initiated and automatically recorded rat activity in each chamber for a period of 4 hours. At the end of the 4 hour monitoring period, the software was stopped and the rats were removed from the activity chambers. The rats were anesthetized and blood samples were obtained via retro-orbital puncture to determine plasma concentration of compounds. The rats were immediately euthanized with CO2 and the brains removed, washed with PBS, frozen on dry ice and stored at −80° C. for receptor occupancy (RO) analysis. […]

[4] = target: T1, hCB2-HEK293 membranes (Homo sapiens, UniProt P34972); assay: CB-2 membrane binding assay ([3H] CP 55,940 displacement); conditions: mean where tested more than once
T1 construct: expressed in transfected cells; host or cells: HEK293
T1 sequence (P34972 whole entry): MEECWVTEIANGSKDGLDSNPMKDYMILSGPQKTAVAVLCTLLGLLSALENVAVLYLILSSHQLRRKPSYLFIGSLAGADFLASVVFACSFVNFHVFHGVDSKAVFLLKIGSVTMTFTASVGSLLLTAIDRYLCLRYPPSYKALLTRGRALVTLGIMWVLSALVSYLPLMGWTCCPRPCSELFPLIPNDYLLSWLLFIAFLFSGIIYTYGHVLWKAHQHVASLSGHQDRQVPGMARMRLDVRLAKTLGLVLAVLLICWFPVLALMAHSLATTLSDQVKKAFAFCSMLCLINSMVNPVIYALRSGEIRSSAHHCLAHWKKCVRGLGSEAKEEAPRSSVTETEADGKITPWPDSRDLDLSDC

[5] = Mouse Fast PK/BBB (plasma and brain concentration); format: in vivo, Male C57bl/6j mice; conditions: 1 hr after oral dosing; 30 mg/kg or 20 mg/kg; N=3
Description: as §2, §1
Male C57bl/6j mice were dosed with test compounds at 30 mg/kg. Plasma was collected via retro-orbital bleeding at 1 hr and 4 hrs after dosing. […] Wet brain weight was recorded before freezing. Brains were homogenized in saline and sent for analysis for determination of concentration of test compound.
Table BIO-3 below present results for representative compounds of the present invention, tested according to the procedure as described above. Each compound was tested in three animals (N=3) and administered PA at 20 mg/kg

[6] = target: T2, Human CB2R (Cannabinoid receptor 2) (Homo sapiens, UniProt P34972); assay: CB-2 in vitro cAMP (HTRF) functional assay; format: cell-based; conditions: mean where tested more than once
T2 construct: host or cells: HEK-293
T2 sequence (P34972 whole entry): as above
Description: CB1 and CB2 receptors are Gi-coupled GPCR. Activation of CB1 and CB2 receptors results in a decrease in cAMP production. An inverse agonist of the CB1 or CB2 receptor results in the opposite effect, an increase of cAMP production. The principle of this assay is based on HTRF® technology (Homogeneous Time-Resolved Fluorescence). The method is a competitive immunoassay between native cAMP produced by cells and the cAMP labeled with the fluorophore d2. The tracer binding is quantified by a Mab anti-cAMP labeled with Eu3+ TBP-NHS Cryptate (supplied as part of the assay kit). The specific signal (i.e. energy transfer) is inversely proportional to the concentration of cAMP in the standard or sample.
Human CB1R (Cannabinoid receptor 1) was stably transfected in HEK-293 cells (DiscoveRx, cat: 93-0200C1). Human CB2R (Cannabinoid receptor 2) was stably transfected in HEK-293 cells (DiscoveRx, cat: 93-0201C1). Cell cultures were maintained in media: DMEM (Invitrogen Cat#12430-054) supplemented with 10% HI FBS (Invitrogen Cat#16140-071), 1% L-glutamine (Invitrogen Cat#25030-081), 0.2 mg/ml Hygromycin B (Invitrogen Cat#10687-010), 600 μg/mL G418 (Invitrogen Cat#10131-035), and 1× Penn/Strep (Invitrogen 15140-122). After cell expansion, aliquots were cryo-stored in media containing 5% DMSO (Pierce Cat#20684).
One day prior to experiments media was warmed to 37° C. and the cryo-stored cells were thawed in a 37° C. water bath. The cells were then added to media (10× volume) and the mixture was centrifuged at 1000 RPM for 5 min. The supernate was removed and the cells were re-suspended in media. A sample of the cell suspension was evaluated on a Cedex XS automated cell counter (Innovatis Systems) to determine viable cells/ml. Additional media was added to the cells to achieve a final cell density of 4E5 cells/mL. The cells were then plated into 384 well PDL white solid bottom plates (Greiner, Cat#781945) at 20 μL per well using a Multidrop (Thermo Scientific). Cells were removed from Row P (location of cAMP standards). Two columns of cells were plated into a clear bottom 384 well PDL coated plate (Greiner, Cat#781944) to view confluence the day of the assay. The cell plates were lidded and stored for 15 minutes in a hood, then transferred to an incubator (37° C., 5% CO2, 95% humidity) overnight.
DMSO was added to all wells of 384 well V bottom polystyrene plate (Greiner, Cat#781280) except to columns 1 and 13, rows O and P and wells M13-M23 and N13-N23. Test compounds (60 μL, 10 mM) were added to Column 1 and 13 (A1 through N1 and A13 through L13). Test compounds were serially diluted 1/3 by transferring and mixing 20 μl sample with 40 μL DMSO.
DMSO (40 μL) was added to wells of 384 well V bottom polystyrene plate: O2 through O11, M14 through M23, N14 through N23, and O14 through O23. AM630 (also known as [6-iodo-2-methyl-1-[2-(4-morpholinyl)ethyl]-1H-indol-3-yl](4-methoxyphenyl)-methanone, Cayman Chemical, Cat#10006974) (60 μL, 10 mM) was added to O1; and 1-(2,4-dichlorophenyl)-7-[(4-fluorophenyl)methylene]-4,5,6,7-tetrahydro-N-1-piperidinyl-1H-indazole-3-carboxamide (60 μL, 10 mM) was added to N13. The control was serially diluted 1/3 by transferring and mixing 20 μl sample with 40 μL DMSO. This process resulted 11 doses per control, 10 mM to […].
Cells plated the day prior to the assay in clear bottom plates were viewed on an inverse microscope to ensure confluency in the range of 60-75%. […]

SMILES	Plasma Concentration (Std Dev) ([1]; 1 mg/kg daily, 2 Hours Post Dose, Day 16, first study)	Brain concentration (Std Dev) ([1]; 0.3 mg/kg, Day 2, 2 hours post dose)	Brain concentration (Std Dev) ([1]; 0.3 mg/kg, Day 23, 2 hours post dose)	Brain concentration (Std Dev) ([1]; 1 mg/kg, Day 2, 2 hours post dose)	Brain concentration (Std Dev) ([1]; 3 mg/kg, Day 2, 2 hours post dose)	IC50 [2] [nM]	Stereotypic Counts (MEAN) ([3]; n=8, first #44 row, dose not printed (presumably 3 mg/kg))	Stereotypic Counts (MEAN) ([3]; n=8, second #44 row, dose not printed (presumably 10 mg/kg))	IC50 [4] [nM]	BRAIN Mean Conc. ± Std. Dev [5]	EC50 [6] [nM]
O=c1cc(NC2CCN(S(=O)(=O)C(F)(F)F)CC2)c2cc(C(c3ccc(Cl)cc3)c3ccc(Cl)cc3)ccc2[nH]1 [Compound #44, 6-(bis(4-chlorophenyl)methyl)-4-(1-(trifluoromethylsulfonyl)piperidin-4-ylamino)quinolin-2(1H)-one]	431 (62) ng/mL	BLOQ*	BLOQ**	BLOQ*	BLOQ*	1.2	3250	2850	53	–	–
O=c1cc(Nc2ccc(C(F)(F)F)cc2)c2cc(C(c3ccc(Cl)cc3)c3ccc(Cl)cc3)ccc2[nH]1 [Compound #59, 6-(bis(4-chlorophenyl)methyl)-4-((4-(trifluoromethyl)phenyl)amino)quinolin-2(1H)-one]	–	–	–	–	–	–	–	–	–	BLOQ ± NA	> 10000
